In patent US20110136727A1, “Compositions and methods for rapid selection of pathogen binding agents” (priority 2009, published 2011):
Where a SMILES comes first, the peptide text is derived from it.

system: not listed separately; assay: Serum stability (serum incubation and western blot); type: in vitro ADME, human; conditions: human serum, western blot probed with Streptavidin-AlexaFluor 647 (FIG. 7)
Protocol: Serum stability of Construct 1. Over the last decade, there was a considerable interest in developing antimicrobial peptides as intravenously administered antibiotics. In this respect, a common criticism of peptide-based drugs has been their susceptibility to endogenous proteases. […] To test the in vitro stability of Construct 1 we used a serum-incubation and western blot analysis. Construct 1 was incubated in fresh human serum at 37° C. and pH=7.4 with a starting concentration of 10 μM. Samples were withdrawn at predetermined time points and each sample diluted 20-fold with loading buffer prior to analysis by western blot (FIG. 7).

Compound | Degradation in human serum, monomeric peptide vs tetravalent PEG scaffold
N=C(N)NCCC[C@H](NC(=O)[C@H](Cc1ccccc1)NC(=O)[C@H](CCCCN)NC(=O)[C@@H]1CCCN1C(=O)[C@H](CCCCN)NC(=O)[C@H](CCCNC(=N)N)NC(=O)[C@@H](N)Cc1c[nH]cn1)C(=O)N[C@@H](Cc1c[nH]cn1)C(=O)N[C@@H](Cc1c[nH]cn1)C(=O)N[C@@H](Cc1c[nH]cn1)C(=O)N[C@@H](Cc1ccccc1)C(=O)N[C@@H](CCCCN)C(=O)N[C@@H](Cc1c[nH]c2ccccc12)C(=O)N[C@@H](CCCCN)C(=O)N[C@@H](Cc1c[nH]cn1)C(=O)N[C@@H](Cc1c[nH]c2ccccc12)C(=O)N[C@@H](CCCCN)C(=O)NCC(=O)N[C@@H](CO)C(=O)N[C@@H](CS)C(=O)O [SEQ ID NO: 33] (H-HRKPKFRHHHFKWKHWKGSC-OH; N-terminus and C-terminus assumed) | degraded much faster

system: E. coli O111:B4; assay: LPS competition assay on random-sequence peptide microarray (binding of fluorescently labeled bacteria with and without excess free LPS); conditions: fluorescent intensity of SYTO 9 labeled E. coli O111:B4 binding to the arrayed peptide without vs with excess non-labeled LPS of the same strain
Protocol: FIG. 2. Schematic representation of the bacterial binding assay. PEG3,400 linker modified random sequence peptide microarrays were incubated (FIG. 2A) with fluorescently labeled bacteria and (FIG. 2B) with bacteria in presence of excess free LPS.
Microarray screening. Aliquots of the bacterial cultures were centrifuged to isolate the cells and were washed twice with an equal volume of PBS buffer (pH 7.2). After each wash, bacteria were resuspended and centrifuged. Cells were fluorescently stained with SYTO 9 green-fluorescent cell-permeable nucleic acid dye (Molecular Probes, Eugene, Oreg.). Dye was added to a 500 microliter suspension of bacteria at a concentration of 20 μM in PBS buffer and shaken for 1 hr at 37 degrees Centigrade. After incubation, the cell suspension was centrifuged, isolated, and washed twice with 1 ml PBS buffer. […] Each array was equipped with an Agilent hybridization chamber, and then 450 microliter solution of E. coli in PBS buffer supplemented with 0.03% FBS was added. The arrays were gently shaken on a platform for 1 hr at 37 degrees Centigrade temperature. After incubation, the hybridization chamber was removed, and unbound cells were washed away from the array by dipping it into a 50 ml solution of the hybridization buffer. This step was repeated twice, and the buffer was changed between washings. A final wash with nanopure water was used to remove salts from the array. Slides were then briefly centrifuged at 1500 rpm for 2 min to dry the arrays.
Data analysis. The arrays were scanned using a laser scanner (PERKIN-ELMER PROSCANARRAY HT) and quantified using GENEPIX PRO6.0 (Molecular Devices, Inc.) in order to determine the fluorescence intensity of each probe and identify its corresponding peptide sequence. A statistical comparison of microarray data was done with GENESPRING GX 7.3 (AGILENT, INC, Palo Alto, Calif., USA) by importing the image-processed data from GENEPIX PRO6.0. Median signal intensities were used in the calculations. For statistical comparisons, each slide was normalized to 50th percentile. Also, measurements of less than 0.01 were set to 0.01. Results were represented on a heatmap in order to be able to compare the difference in intensities with and without excess LPS.
LPS competition assay. Since approximately 90% of bacterial surface is comprised of LPS it was expected that bacteria will bind to random peptide microarray mostly through LPS. […] Same number of cells stained with SYTO-9® was used to probe the microarrays with and without excess non-labeled LPS from the same strain (FIG. 2).

Compound | Ratio ECO/(ECO + LPS)
1 (WWRRKKWHKHKRKHPRFGSC) [compound 1] | 18.76
2 (HWKRRHKHKWPKRHPHKGSC) [compound 2] | 13.22
3 (HWKRHHRPKHKHHRHKHGSC) [compound 3] | 11.48
4 (HFHHWKWKHHHHRHRRFGSC) [compound 4] | 11.28
5 (WKKKRKHRHKKHWHPWRGSC) [compound 5] | 10.3
6 (RHWRKPRKWHKKWPPHRGSC) [compound 6] | 9.881
7 (WKRPWHRWHPKRRKWRHGSC) [compound 7] | 9.611
8 (WHHWFHHKKKKPWWKKKGSC) [compound 8] | 8.832
9 (HFRKWHKRRWKHHKKWKGSC) [compound 9] | 8.435
10 (HPWWWHHKKRRHHKHKKGSC) [compound 10] | 5.345
11 (PWWKWRKRKHPKKHHKRGSC) [compound 11] | 4.687
12 (WKWKRHWKWPHRRKHFFGSC) [compound 12] | 4.576
13 (WHRKFFRWRFHRHKKHKGSC) [compound 13] | 4.547
14 (HRKRPKRHHKRHWPRWKGSC) [compound 14] | 4.429
15 (KKFHPHFKPWHFRHKKPGSC) [compound 15] | 4.303
16 (KHPFWHPHRRHKKKRWFGSC) [compound 16] | 4.283
17 (WHHKWRFWKHFRHKRHFGSC) [compound 17] | 4.216
18 (SIADIHKRKFRVRRKHIGSC) [compound 18] | 4.04
19 (PWKFHRHWHHHKHWKWKGSC) [compound 19] | 3.644
20 (HHWWRKRRRKRHRKHWKGSC) [compound 20] | 3.527
21 (RWQKKVKMKRDHVYFRMGSC) [compound 21] | 3.526
22 (RWFPKKHHHRWRKWWKKGSC) [compound 22] | 3.506
23 (HHHHKRKHFWRPRHPRKGSC) [compound 23] | 3.493
24 (HKRHKKHFKFFRWHRKWGSC) [compound 24] | 3.428
25 (TKRIHKWPQDAYRIRRGGSC) [compound 25] | 3.355
26 (RTYWNYGIMRHNKTRKGGSC) [compound 26] | 3.331
27 (WHWHHWKHKKRRHHWRRGSC) [compound 27] | 3.261

Compound | Ratio ECO/(ECO + LPS)
28 (KHWHWHKRKKHHRKFFWGSC) [compound 28] | 3.0313
29 (RKHHKKPHKRKRWKWWPGSC) [compound 29] | 3.021
30 (RFHWKHRRKWKHHHPRRGSC) [compound 30] | 2.944
31 (HWHHRWWHHWKHPHHWRGSC) [compound 31] | 2.854
32 (WKFRHRHHRHHWHKKWKGSC) [compound 32] | 2.844
33 (HRKPKFRHHHFKWKHWKGSC) [compound 33] | 2.786
34 (RRWWRKRFWHHRWHRRKGSC) [compound 34] | 2.423
35 (HRWWFKKKHRFRWWKRWGSC) [compound 35] | 2.404
36 (RFFFHKWRRWRRRKPPRGSC) [compound 36] | 2.378
37 (RWRRHKHFKRPHRKHKRGSC) [compound 37] | 2.375
38 (WWHHKWFKHKKFWRHKFGSC) [compound 38] | 2.349
39 (WKPWFHPRKHHKWRHWHGSC) [compound 39] | 2.334
40 (KHKWWRWHKWHWWFRKHGSC) [compound 40] | 2.322
41 (KWKHHKKFRKRKRHWFHGSC) [compound 41] | 2.316
42 (HWHPRWHKHKFKHWRWHGSC) [compound 42] | 2.273
43 (WRFKHFRWKRFKHHHKKGSC) [compound 43] | 2.263
44 (IYNKRSQVRRKGFKKKYGSC) [compound 44] | 2.169
45 (RKRKWHHPWHWRRKRRWGSC) [compound 45] | 2.136
46 (RHWRPKFRKFRWWRWHHGSC) [compound 46] | 2.125
47 (FHKKRHFKRRHKFWWWRGSC) [compound 47] | 2.114
48 (HKWHRKKFHKHRFKHHKGSC) [compound 48] | 2.112
49 (WFWKHKKWRRHPRKWHWGSC) [compound 49] | 2.104
50 (EPKLWFKPRRGGYRHRHGSC) [compound 50] | 2.035
51 (HRKWHWPWKWPWKRKRWGSC) [compound 51] | 2.033
52 (RPKPHRHWKPKFPHHHWGSC) [compound 52] | 2.031
53 (WRRSTPVGPWTWFGKFLGSC) [compound 53] | 1.974
54 (RRFRHWWRWRKRRRKWRGSC) [compound 54] | 1.914
